Experiments:
HAUSP/USP7 [1] = assay: Ub-AMC/Ub-Rh110-Gly DUB assay with HAUSP/USP7; assay type: biochemical; conditions: 1 nM enzyme
Description: (§1) FIG. 5: Hydrolysis of fluorogenic Ub derivatives by the deubiquitinating enzymes HAUSP/USP7 and UCH-L3. All assays contained 1 nM of enzyme, substrate concentration was varied.
Assay 1: Commercial and synthetic Ub-AMC, prepared according to the present method are treated side by side with HAUSP/USP7 and compared.
(§2) Assay 3: Ub-Rh110-Gly was treated with HAUSP/USP7 and UCH-L3.
Usp7(206-1102) was expressed in E. coli from a synthetic construct and purified as described: (a) Shanmugham et al. J. Am. Chem. Soc. 2010, 132, 8834-8835; (b) Fernandez-Montalvan et al. Febs J. 2007, 274, […].
(§3) assay buffer: 50 mM HEPES pH 7.5 • 100 mM NaCl • 1 mM EDTA • 0.05% Tween20 • 10 mM DTT • Reaction mixtures were incubated for 30 min at 25° C., measured every 5 minutes • 30 μL reactions • Proteins used: Ub-AMC (Commercial) • Ub-AMC (Synthetic) • Ub-Rh110-Gly (Synthetic) • USP7 full length • UCH-L3 All assays contained 1 nM DUB and the following concentrations of Ub:
DUB activity on commercial (Sigma) and synthetic ubiquitin with a C-terminal fluorescent group, 7-amino-4-methylcoumarin (Ub-AMC) were performed at 25° C. in buffer containing 50 mM Hepes pH 7.5, 100 mM NaCl, 1 mM EDTA, 0.05% (w/v) Tween20, 10 mM DTT. The concentrations Ubiquitin-AMC and DUB are specified in the figures. Assays were performed in “Non binding surface flat bottom low flange” black 384-well plates (Corning) in 30 μl reactions. Kinetic data was collected in intervals of 5 min using a Fluostar Optima fluorescence plate reader (BMG Labtechnologies) at excitation and emission wavelengths of 355 nm and 460 nm, respectively for Ub-AMC. Experimental data was processed using Prism 4.03 (GraphPad Software, Inc.).
Target sequence in this assay (Q93009 whole entry): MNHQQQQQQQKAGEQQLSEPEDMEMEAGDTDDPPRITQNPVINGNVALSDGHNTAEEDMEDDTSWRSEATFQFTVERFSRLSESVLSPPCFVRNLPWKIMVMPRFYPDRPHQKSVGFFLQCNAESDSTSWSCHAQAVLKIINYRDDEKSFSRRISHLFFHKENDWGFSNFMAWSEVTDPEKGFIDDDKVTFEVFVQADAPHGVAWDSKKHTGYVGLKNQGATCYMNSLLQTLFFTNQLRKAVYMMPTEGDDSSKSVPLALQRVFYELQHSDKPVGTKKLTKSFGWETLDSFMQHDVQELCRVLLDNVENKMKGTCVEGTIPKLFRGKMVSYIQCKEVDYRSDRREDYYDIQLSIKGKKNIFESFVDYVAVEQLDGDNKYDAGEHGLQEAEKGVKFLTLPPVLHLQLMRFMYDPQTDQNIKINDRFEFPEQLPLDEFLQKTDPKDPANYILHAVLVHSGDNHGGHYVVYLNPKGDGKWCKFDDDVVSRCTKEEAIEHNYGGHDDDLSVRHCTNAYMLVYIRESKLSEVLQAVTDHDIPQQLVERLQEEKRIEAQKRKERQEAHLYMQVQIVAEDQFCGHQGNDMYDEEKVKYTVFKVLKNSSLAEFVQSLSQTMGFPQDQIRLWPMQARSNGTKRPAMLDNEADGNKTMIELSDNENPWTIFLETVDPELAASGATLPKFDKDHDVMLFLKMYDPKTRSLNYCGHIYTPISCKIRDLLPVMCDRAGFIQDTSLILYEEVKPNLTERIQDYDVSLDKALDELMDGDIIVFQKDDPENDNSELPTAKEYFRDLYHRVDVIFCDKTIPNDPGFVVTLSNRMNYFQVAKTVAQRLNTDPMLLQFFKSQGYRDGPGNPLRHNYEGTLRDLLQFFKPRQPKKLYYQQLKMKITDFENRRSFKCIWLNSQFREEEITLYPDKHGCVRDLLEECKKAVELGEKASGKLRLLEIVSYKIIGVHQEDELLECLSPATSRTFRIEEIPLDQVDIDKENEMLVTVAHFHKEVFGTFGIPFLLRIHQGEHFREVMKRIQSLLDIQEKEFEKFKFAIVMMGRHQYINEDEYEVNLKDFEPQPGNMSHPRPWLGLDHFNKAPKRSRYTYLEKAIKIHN

UCH-L3 = target: T1, UCH-L3 (Homo sapiens, UniProt P15374); assay: Ub-AMC/Ub-Rh110-Gly DUB assay with UCH-L3; assay type: biochemical; conditions: 1 nM enzyme, substrate 0.06-15 μM, 25° C., 30 min
T1 construct: made in house; host or cells: Escherichia coli
T1 sequence (P15374 1-230): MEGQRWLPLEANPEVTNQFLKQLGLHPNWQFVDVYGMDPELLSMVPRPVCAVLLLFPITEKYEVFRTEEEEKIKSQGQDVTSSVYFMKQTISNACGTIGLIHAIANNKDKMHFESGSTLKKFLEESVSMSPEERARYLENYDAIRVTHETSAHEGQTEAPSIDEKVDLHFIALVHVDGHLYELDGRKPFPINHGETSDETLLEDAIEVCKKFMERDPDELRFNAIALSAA
Description: as §1
Assay 2. Synthetic Ub-AMC was treated with UCH-L3.
as §2
UCH-L3 in pRSET vector was obtained from Dr. Keith Wilkinson. UCH-L3 was expressed in Escherichia coli and purified as described in: C. N. Larsen, J. S. Price, K. D. Wilkinson, K. D. Biochemistry 1996, 35, 6735-6744.
as §3
DUB activity on commercial (Sigma) and synthetic ubiquitin with a C-terminal fluorescent group, 7-amino-4-methylcoumarin (Ub-AMC) were performed at 25° C. in buffer containing 50 mM Hepes pH 7.5, 100 mM NaCl, 1 mM EDTA, 0.05% (w/v) Tween20, 10 mM DTT. The concentrations Ubiquitin-AMC and DUB are specified in the figures. […] Kinetic data was collected in intervals of 5 min using a Fluostar Optima fluorescence plate reader (BMG Labtechnologies) at excitation and emission wavelengths of 355 nm and 460 nm, respectively for Ub-AMC. […]

HAUSP/USP7 [2] = assay: Binding of HAUSP/USP7 to ubiquitin-VME; conditions: Ub-VME 2 μM, USP7 1 μM, 60 min at 30° C.
Description: Both Ub derivatives are routinely used to measure activity of deubiquitinating enzymes (DUBs). […] The structural integrity of synthetic UbAMC and UBRh110Gly, both prepared in accordance with the method of the present invention, was tested using the following assays.
Binding of HAUSP/USP7 to ubiquitin-VME Assay buffer: 20 mM HEPES pH7.5 • 150 mM NaCl • 2 μM ZnCl2 • 10 mM MgCl2 • 2 mM DTT
Reaction mixtures were incubated for 60 min at 30° C.
Load 10 μL on gel (complete sample)
Target sequence in this assay (Q93009 206-1102): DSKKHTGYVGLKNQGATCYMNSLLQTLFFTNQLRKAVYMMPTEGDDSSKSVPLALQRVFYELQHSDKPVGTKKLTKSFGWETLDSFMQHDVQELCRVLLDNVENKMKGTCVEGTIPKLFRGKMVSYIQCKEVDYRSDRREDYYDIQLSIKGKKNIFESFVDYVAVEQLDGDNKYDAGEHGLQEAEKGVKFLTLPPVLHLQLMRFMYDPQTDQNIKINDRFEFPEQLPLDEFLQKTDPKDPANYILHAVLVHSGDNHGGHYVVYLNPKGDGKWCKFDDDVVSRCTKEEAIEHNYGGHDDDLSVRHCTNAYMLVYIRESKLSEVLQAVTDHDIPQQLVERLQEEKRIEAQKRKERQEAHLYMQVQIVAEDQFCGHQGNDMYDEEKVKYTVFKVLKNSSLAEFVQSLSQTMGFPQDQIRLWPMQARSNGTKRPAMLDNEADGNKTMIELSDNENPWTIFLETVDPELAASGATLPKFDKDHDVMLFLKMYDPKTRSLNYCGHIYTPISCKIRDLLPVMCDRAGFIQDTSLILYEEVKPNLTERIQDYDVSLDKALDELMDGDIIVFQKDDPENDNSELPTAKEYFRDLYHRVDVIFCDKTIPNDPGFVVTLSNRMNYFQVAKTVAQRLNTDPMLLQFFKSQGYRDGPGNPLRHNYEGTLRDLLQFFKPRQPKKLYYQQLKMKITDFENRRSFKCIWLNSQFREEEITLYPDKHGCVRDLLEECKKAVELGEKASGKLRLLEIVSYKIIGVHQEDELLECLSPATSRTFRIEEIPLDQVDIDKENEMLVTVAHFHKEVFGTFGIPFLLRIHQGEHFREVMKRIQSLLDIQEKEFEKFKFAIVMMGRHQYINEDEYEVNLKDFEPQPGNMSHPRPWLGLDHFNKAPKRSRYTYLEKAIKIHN

| Substance | hydrolysis / turnover by HAUSP/USP7 (recognition as substrate) (HAUSP/USP7 [1]; substrate 0.06-15 μM, 25° C., 30 min) | Michaelis-Menten kinetics comparison with USP7 (HAUSP/USP7 [1]; substrate concentration varied, commercial versus synthetic UbAMC (FIG. 5C)) | Km values with HAUSP/USP7 (HAUSP/USP7 [1]; substrate concentration varied, synthetic versus commercial UbAMC) | hydrolysis / turnover by UCH-L3 (recognition as substrate) (UCH-L3) | hydrolysis / turnover by UCH-L3 (recognition as substrate) (UCH-L3; listed as synthetic Ub-AMC) | reaction of active-site targeted probe with HAUSP/USP7 (HAUSP/USP7 [2]) |
| --- | --- | --- | --- | --- | --- | --- |
| synthetic UbAMC: synthetic ubiquitin with a C-terminal fluorescent group, 7-amino-4-methylcoumarin; fluorogenic assay reagent | efficient turnover | identical kinetics | comparable Km values | efficient turnover | hydrolyzed and thus recognized as a substrate | – |
| UbVME: active site directed probe Ub vinylmethyl ester which covalently modifies DUBs | – | – | – | – | – | reacted swiftly as expected |

— patent publication US20130267680A1, “TOTAL CHEMICAL SYNTHESIS OF UBIQUITIN, UBIQUITIN MUTANTS AND DERIVATIVES THEREOF” (Stichting Het Nederlands kankerinstituut, priority 2010, published 2013)
